Earlier results, collected in patent publication US20030055013A1, “HCV combination therapy” (SCHERING CORPORATION, priority 2001, published 2003).

How the values were obtained:
[1] = per 1 mg (Goodman & Gilman)
HIV patients = details: higher doses, PO, Phase I/II clinical trials (PharmaProjects)
[2] = monotherapy, patients with chronic hepatitis C, prior studies
[3] = test system: chronic childhood cholestasis; details: 20-25 IU/kg/day (Sokool et al.)
[4] = stored between 2° and 8° C. and used within 24 hours of reconstitution

Compound | potency of 1 mg in IU of Vitamin E [1] | also measured
CC(=O)Oc1c(C)c(C)c2c(c1C)CC[C@@](C)(CCC[C@H](C)CCC[C@H](C)CCCC(C)C)O2 (racemic) [dl-alpha tocopheryl acetate] | one | –
CC(C)(Sc1cc(C(C)(C)C)c(O)c(C(C)(C)C)c1)Sc1cc(C(C)(C)C)c(O)c(C(C)(C)C)c1 [Panavia, 4,4′-isopropylidenedithiobis-2,6-di-t-butylphenol] | – | CD4 levels (HIV patients): stablized or slightly stabilized
NC(=O)c1ncn([C@@H]2O[C@H](CO)[C@@H](O)[C@H]2O)n1 [Ribavirin, ribavirin] | – | patients with reduction in hemoglobin of greater than 4 g/dL [2]: 15.7 % of patients
Cc1c(C)c2c(c(C)c1O)CC[C@@](C)(CCC[C@H](C)CCC[C@H](C)CCCC(C)C)O2 [d-alpha tocopherol] | 1.49 IU | –
CC(=O)Oc1c(C)c(C)c2c(c1C)CC[C@@](C)(CCC[C@H](C)CCC[C@H](C)CCCC(C)C)O2 [d-alpha tocopheryl acetate] | 1.36 IU | –
Cc1c(C)c2c(c(C)c1OC(=O)CCC(=O)O)CC[C@@](C)(CCC[C@H](C)CCC[C@H](C)CCCC(C)C)O2 [d-alpha tocopheryl succinate] | 1.21 IU | –
d-alpha-tocopheryl polyethylene glycol 1000 succinate [Vitamin E-TPGS] | – | safety and efficacy in chronic childhood cholestasis [3]: safe and effective
interferon alfa | – | stability of reconstituted aqueous solutions [4]: stable
